# Measurements from paper PMC12548092, “Exploring Helical Fraying Linked to Dynamics and Catalysis in Adenylate Kinase” (Biochemistry, 2025).
# Molecular target: T1, hAK1 (Homo sapiens, UniProt P00568)
# T1 construct: gene AK1; pET24d, E. coli BL21 (DE3), Blue Sepharose and size exclusion; 15N/13C-labelled
# T1 sequence (P00568 1-194): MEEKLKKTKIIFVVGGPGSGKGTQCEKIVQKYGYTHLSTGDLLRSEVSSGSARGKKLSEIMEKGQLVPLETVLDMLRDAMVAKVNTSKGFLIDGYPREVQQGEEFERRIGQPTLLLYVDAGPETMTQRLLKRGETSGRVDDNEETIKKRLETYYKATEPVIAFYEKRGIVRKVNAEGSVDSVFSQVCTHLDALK
# Test: NMR backbone assignment and […] relaxation order parameters
# Assay type: binding
# Conditions: 30 mM MES, 50 mM NaCl, pH 5.5 (assignment), 298 K
smiles,measurement,value
Nc1ncnc2c1ncn2[C@@H]1O[C@H](COP(=O)(O)OP(=O)(O)OP(=O)(O)OP(=O)(O)OP(=O)(O)OC[C@H]2O[C@@H](n3cnc4c(N)ncnc43)[C@H](O)[C@@H]2O)[C@@H](O)[C@H]1O [Ap5A],NMR backbone assignment and 15N relaxation order parameters,one helical turn in the α-helix at the N-terminus of the catalytic loop
